Data from patent US20250073249A1, “STEROID COMPOUND, AND PREPARATION METHOD THEREFOR AND USE THEREOF” (SHANGHAI INSTITUTE OF MATERIA MEDICA, CHINESE ACADEMY OF …, priority 2022, published 2025).

Assays:
LNCaP cells = assay: In vitro LNCaP cell proliferation inhibition test (CellTiter-Glo); assay type: cell-based; settings: for Maximum Inhibition (%) / IC50: 6 days; for IC50: Homo sapiens, read-out: Anti-proliferative activity IC50
Experimental: The cells were then digested with trypsin and counted using an automated cell counter to determine cell density. The cell suspension was diluted to the desired density in growth medium. Subsequently, 100 μL of the cell suspension was seeded into 96-well plates and incubated at 37° C. with 5% CO2 for 24 hours. 10 μL of drug solution (including 3-fold serial dilutions of compounds or DMSO) was added to each well, and the plates were incubated at 37° C. with 5% CO2 for 6 days. Prior to measurement, the assay plates were equilibrated to room temperature. 40 μL of CellTiter-Glo® reagent was added to each well. The plates were mixed on an orbital shaker for 2 minutes to induce cell lysis. After incubation at room temperature for 60 minutes to stabilize the luminescence signal, the plates were read on an Envision plate reader.

[1] = In vivo pharmacokinetics in rats after oral gavage; settings: male SD rats, PO 10 mg/kg
Experimental: Male SD rats were randomly divided into 6 groups, 3 rats per group. The rats were fasted but not water-deprived for 12-14 h one day before dosing. The test samples were then dissolved in a solvent of 5% DMSO+30% PEG400+65% (0.5% MC) and administered by gavage at 10 mg/kg. Food was provided 4 h after dosing. Blood samples (0.10 mL) were collected via the orbital sinus at 0, 15, 30 min, 1, 2, 4, 6, 8, and 24 h, with EDTA-K2 as anticoagulant. Blood samples were placed on ice after collection and centrifuged to separate plasma within 30 minutes (centrifugation conditions: 5000 rpm, 10 minutes, 4° C.). 50.0 μL of plasma sample (taken from −80° C. freezer, thawed naturally at room temperature and vortexed for 30 seconds) was added to a 1.5 mL centrifuge tube, followed by addition of 500 μL internal standard solution (methanol (TEDIA, HPLC grade), acetonitrile (TEDIA, HPLC grade), formic acid (FA, ACROS ORGANICS, HPLC grade), water was laboratory-made ultrapure water (100.0 ng·mL−1)). The mixture was vortexed for 60 seconds and centrifuged for 3 minutes (centrifugal force 12000 rpm). 100 μL of the supernatant was transferred to a 96-well injection plate containing an equal volume of water, mixed by shaking, and analyzed by LC-MS/MS with an injection volume of 10 μL. The data acquisition and control system software was Analyst 1.5.1 software (Applied Biosystem). The chromatographic sample peaks were integrated automatically. The ratio of sample peak area to internal standard peak area was used as an indicator for regression with sample concentration.
The pharmacokinetic parameters of representative compounds of the present invention were tested in male SD rats after oral gavage administration at 10 mg/kg according to the above conventional method to examine the pharmacokinetic characteristics of the compounds of the present invention in rats.

AR = target: T1, AR (Homo sapiens, UniProt P10275, T878A); assay: In vitro AR degradation activity test in LNCaP cells (ELISA, OD450); assay type: cell-based; settings: for DC50: LNCaP cells, 24 hours
T1 construct: endogenous in cells; host or cells: LNCaP
T1 sequence (P10275 1-920 T878A): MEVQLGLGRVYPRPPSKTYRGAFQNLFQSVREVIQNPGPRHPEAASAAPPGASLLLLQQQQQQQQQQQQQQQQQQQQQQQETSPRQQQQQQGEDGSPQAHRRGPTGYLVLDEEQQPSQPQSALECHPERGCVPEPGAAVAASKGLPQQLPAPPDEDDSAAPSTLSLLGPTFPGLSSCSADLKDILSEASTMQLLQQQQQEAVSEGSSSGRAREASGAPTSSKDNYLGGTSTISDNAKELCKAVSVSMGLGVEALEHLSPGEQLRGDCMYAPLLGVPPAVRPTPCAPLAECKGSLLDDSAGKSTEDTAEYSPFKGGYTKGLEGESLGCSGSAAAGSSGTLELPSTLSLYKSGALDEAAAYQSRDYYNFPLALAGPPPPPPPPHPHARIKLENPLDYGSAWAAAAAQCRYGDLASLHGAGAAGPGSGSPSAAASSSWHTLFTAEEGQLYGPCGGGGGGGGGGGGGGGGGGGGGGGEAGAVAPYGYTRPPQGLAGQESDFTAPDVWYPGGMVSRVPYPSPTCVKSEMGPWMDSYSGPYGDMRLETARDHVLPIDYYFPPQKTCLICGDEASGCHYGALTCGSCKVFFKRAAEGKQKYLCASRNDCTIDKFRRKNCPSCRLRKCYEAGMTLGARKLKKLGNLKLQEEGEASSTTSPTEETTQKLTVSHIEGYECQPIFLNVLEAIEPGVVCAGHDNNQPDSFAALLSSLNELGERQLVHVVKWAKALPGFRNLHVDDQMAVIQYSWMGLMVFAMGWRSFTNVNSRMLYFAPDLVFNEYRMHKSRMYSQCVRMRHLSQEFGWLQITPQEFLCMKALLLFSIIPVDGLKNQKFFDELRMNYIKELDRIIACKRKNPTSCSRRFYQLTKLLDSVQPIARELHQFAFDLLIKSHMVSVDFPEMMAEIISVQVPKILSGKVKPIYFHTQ
Experimental: The cells were then digested with trypsin and counted using an automated cell counter. The cell suspension was diluted to the desired density in growth medium. The cell suspension was then seeded into 96-well plates at 100 μL per well, and the plates were incubated at 37° C. with 5% CO2 for 24 hours. The compounds were then diluted 200-fold to the final concentration with DMSO or 3-fold to the final concentration with culture medium. 50 μL of compound solution was transferred to the 96-well plate and incubated at 37° C. for 24 hours. After 24 hours of incubation, the cell plate was washed 3 times with DPBS, 100 μL of 1× lysis buffer was added to each well, and placed on ice for 30 minutes. The supernatant was collected. The protein in the cell lysate samples was quantified and then diluted to the required concentration. 100 μL of cell lysate sample was added to the appropriate wells, sealed with tape and pressed firmly on top of the wells, and the plate was incubated at 37° C. for 2 hours. The plate contents were then discarded, and washed 4 times with 1× wash buffer, 200 μL per well each time. 100 μL of reconstituted detection antibody was then added, the plate was sealed with tape and incubated at 37° C. for 1 hour. The aspiration/wash step was then repeated, 100 μL of reconstituted HRP-Linked secondary antibody was added to each well, the plate was sealed with tape and incubated at 37° C. for 30 minutes. The aspiration/wash step was then repeated, 100 μL of substrate solution was added to each well and incubated at 37° C. for 10 minutes, and finally 100 μL of stop solution was added to each well. The plate was gently tapped to ensure thorough mixing, and the OD450 nm was recorded.
Degradation rate (%)=(OD450_max−OD450_sample)/(OD450_max−OD450_min)×100,plotted using GraphPad Prism 5 software, and IC50 is calculated using SPSS software.

Compound | Maximum Inhibition (%) (LNCaP cells) | IC50 (LNCaP cells) [nM] | DC50 (AR) [nM] | also measured
C[C@]12CC[C@H](O)CC1=CC[C@@H]1[C@@H]2CC[C@]2(C)C(c3cccnc3)=CC[C@@H]12 [Abiraterone, abiraterone, reference compound] | 84.06 | 2800 |  | Kel [1]: 0.298 h⁻¹; MRTPO [1]: 4.60 h; AUC(0-inf) ([1]; rat, plasma): 198 ng·h/mL; AUC(0-t) ([1]; rat, plasma): 163 ng·h/mL; half-life ([1]; rat, plasma): 2.37 h; Cmax ([1]; rat, plasma, read-out: Cmax): 48.4 ng/mL; tmax ([1]; rat, plasma, read-out: tmax): 1.83 h
C[C@]12CC[C@H](NC(=O)c3ccncc3)CC1=CCC1C2CC[C@]2(C)C(c3cccnc3)=CCC12 (stereo partly drawn) [Compound 2, N-((3S,10R,13S)-10,13-dimethyl-17-(pyridin-3-yl)-2,3,4,7,8,9,10,11,12,13,14,15-dodecahydro-1H-cyclopenta[a]phenanthren-3-yl)isonicotinamide] | 93.50 | 851 |  | 
C[C@]12CC[C@H](NC(=O)c3cccnc3)CC1=CCC1C2CC[C@]2(C)C(c3cccnc3)=CCC12 (stereo partly drawn) [Compound 3, N-((3S,10R,13S)-10,13-dimethyl-17-(pyridin-3-yl)-2,3,4,7,8,9,10,11,12,13,14,15-dodecahydro-1H-cyclopenta[a]phenanthren-3-yl)nicotinamide] |  |  | 2870 | 
C[C@]12CC[C@H](NC(=O)c3ccncc3)CC1=CCC1C2CC[C@]2(C)C(n3cnc4ccccc43)=CCC12 (stereo partly drawn) [Compound 8, N-((3S,10R,13S)-17-(1H-benzo[d]imidazol-1-yl)-10,13-dimethyl-2,3,4,7,8,9,10,11,12,13,14,15-dodecahydro-1H-cyclopenta[a]phenanthren-3-yl)isonicotinamide] | 104.5 | 763 | 3760 | 
C[C@]12CC[C@H](NC(=O)c3ccnnc3)CC1=CCC1C2CC[C@]2(C)C(n3cnc4ccccc43)=CCC12 (stereo partly drawn) [Compound 9] | 95.87 | 765 |  | 
C[C@]12CC[C@H](NC(=O)c3ccnnc3)CC1=CCC1C2CC[C@]2(C)C(c3cncnc3)=CCC12 (stereo partly drawn) [Compound 10] | 99.74 | 820 | 4250 | 
Cc1cn(C2=CCC3C4CC=C5C[C@@H](NC(=O)c6cccnc6)CC[C@]5(C)C4CC[C@]23C)cn1 (stereo partly drawn) [Compound 12, N-((3S,10R,13S)-10,13-dimethyl-17-(4-methyl-1H-imidazol-1-yl)-2,3,4,7,8,9,10,11,12,13,14,15-dodecahydro-1H-cyclopenta[a]phenanthren-3-yl)nicotinamide] | 102.9 | 933 | 3580 | 
Cc1cn(C2=CCC3C4CC=C5C[C@@H](NC(=O)c6ccncc6F)CC[C@]5(C)C4CC[C@]23C)cn1 (stereo partly drawn) [Compound 15, N-((3S,10R,13S)-10,13-dimethyl-17-(4-methyl-1H-imidazol-1-yl)-2,3,4,7,8,9,10,11,12,13,14,15-dodecahydro-1H-cyclopenta[a]phenanthren-3-yl)-3-fluoroisonicotinamide] | 102.6 | 752 |  | 
CCc1cn(C2=CCC3C4CC=C5C[C@@H](NC(=O)c6ccncc6)CC[C@]5(C)C4CC[C@]23C)cn1 (stereo partly drawn) [Compound 18, N-((3S,10R,13S)-17-(4-ethyl-1H-imidazol-1-yl)-10,13-dimethyl-2,3,4,7,8,9,10,11,12,13,14,15-dodecahydro-1H-cyclopenta[a]phenanthren-3-yl)isonicotinamide] | 98.53 | 356 | 3210 | Anti-proliferative activity, fold improvement compared to abiraterone (LNCaP cells; ratio to abiraterone IC50): 7.9 fold
CCc1cn(C2=CCC3C4CC=C5C[C@@H](NC(=O)c6ccnnc6)CC[C@]5(C)C4CC[C@]23C)cn1 (stereo partly drawn) [Compound 19] | 97.68 | 427 |  | 
CC(C)c1cn(C2=CCC3C4CC=C5C[C@@H](NC(=O)c6ccncc6)CC[C@]5(C)C4CC[C@]23C)cn1 (stereo partly drawn) [Compound 20, N-((3S,10R,13S)-17-(4-isopropyl-1H-imidazol-1-yl)-10,13-dimethyl-2,3,4,7,8,9,10,11,12,13,14,15-dodecahydro-1H-cyclopenta[a]phenanthren-3-yl)isonicotinamide] | 94.04 | 734 |  | 
C[C@]12CC[C@H](NC(=O)c3ccnnc3)CC1=CCC1C2CC[C@]2(C)C(n3cnc(C(F)(F)F)c3)=CCC12 (stereo partly drawn) [Compound 22] | 104.1 | 819 |  | 
COc1cn(C2=CCC3C4CC=C5C[C@@H](NC(=O)c6ccnnc6)CC[C@]5(C)C4CC[C@]23C)cn1 (stereo partly drawn) [Compound 24] | 98.02 | 475 | 3880 | Anti-tumor activity and efficacy compared to enzalutamide (LNCaP cells; in words): comparable anti-tumor activity but significantly superior anti-tumor efficacy compared to enzalutamide
C[C@]12CC[C@H](NC(=O)c3ccnnc3)CC1=CCC1C2CC[C@]2(C)C(n3cnc(C#N)c3)=CCC12 (stereo partly drawn) [Compound 25] | 89.52 | 471 |  | 
Cc1cn(C2=CCC3C4CC=C5C[C@@H](NC(=O)c6ccc(C#N)cc6)CC[C@]5(C)C4CC[C@]23C)cn1 (stereo partly drawn) [Compound 36, N-((3S,10R,13S)-17-(4-methyl-1H-imidazol-1-yl)-10,13-dimethyl-2,3,4,7,8,9,10,11,12,13,14,15-dodecahydro-1H-cyclopenta[a]phenanthren-3-yl)-4-cyanobenzamide] | 99.38 | 643 | 1370 | AR degradation activity, improvement compared to Galeterone (AR; ratio to Galeterone DC50): 7.6 times
